{
  "source": "patent US20260364076A1",
  "about": "(Amgen Inc., priority 2022, published 2026)",
  "key": {"[1]": {"assay": "Drug-drug interaction study with itraconazole (CYP3A4 inhibitor): sotorasib plasma PK in healthy subjects", "conditions": "human, in vivo, po, 360 mg; for AUC(0-inf): AUCinf (GLSM); for AUC(0-t): AUClast (GLSM)", "procedure": "(§1) Safety and tolerability monitoring were performed throughout the study."}, "[2]": {"assay": "Drug-drug interaction study with rifampin (CYP3A4 inducer): sotorasib plasma PK in healthy subjects", "format": "in vivo, human", "conditions": "for Cmax / AUC(0-inf) / AUC(0-t): human, plasma, 960 mg; for AUC(0-inf): read-out: AUCinf (GLSM); for AUC(0-t): read-out: AUClast (GLSM)", "procedure": "as §1"}, "[3]": {"assay": "Single-dose PK study in subjects with moderate or severe hepatic impairment compared to healthy subjects", "format": "in vivo, human", "procedure": "(§2) This Example describes an open-label single-dose study of sotorasib that was conducted in healthy subjects and subjects with moderate or severe hepatic impairment (see, Inclusion/Exclusion criteria):\n(§3) The primary objective of the study was to evaluate the pharmacokinetics (PK) of a single oral dose of sotorasib administered in subjects with moderate or severe hepatic impairment compared to subjects with normal hepatic function. The secondary objective of the study was to evaluate the safety and tolerability of sotorasib administered in subjects with moderate or severe hepatic impairment compared to subjects with normal hepatic function.\n(§4) Subjects meeting eligibility requirements were assigned to 1 of 3 groups: Group 1—Normal function (No impairment, n=6-12); Group 2—Moderate impairment (Child-Pugh Class B, n=6-8); Group 3—Severe impairment (Child-Pugh Class C, n=6-8). The classification is based on Child-Pugh scores as per Figg et al. (1995).\nThe plasma PK parameters of sotorasib will be calculated using standard noncompartmental methods.\nThe data from hepatically impaired subjects (Group 2 and 3; tests) and control subjects (normal hepatic function [Group 1]; reference) will be included in the analysis. Geometric mean ratios (Test/Reference) for Cmax and AUC values and associated 90% confidence intervals will be estimated.\nAdditional parameters may be calculated, and sotorasib metabolites may be analyzed. PK parameters for the metabolites, if calculated, will not be subject to inferential statistical analysis. Specific details will be presented in the Statistical Analysis Plan for this study."}, "[4]": {"assay": "Safety and tolerability in single-dose hepatic impairment study", "format": "in vivo, human", "procedure": "as §2, §3, §4"}, "KRAS^G12C": {"system": "KRAS^G12C", "conditions": "cited from earlier work"}, "[5]": {"system": "extracellular signal-regulated kinase (ERK)", "conditions": "preclinical studies; cited from earlier work"}, "KRAS p.G12C tumors": {"system": "KRAS p.G12C tumors", "conditions": "mice bearing KRAS p.G12C tumors; cited from earlier work"}, "[6]": {"system": "cells and tumors harboring KRAS G12C mutations", "conditions": "cited from earlier work"}, "[7]": {"system": "cancer with the KRAS G12C mutation", "conditions": "cited from earlier work"}, "CYP3A": {"system": "CYP3A", "conditions": "hepatic; cited from earlier work"}, "[8]": {"conditions": "in vivo; cited from earlier work"}, "[9]": {"conditions": "360 mg sotorasib + 200 mg itraconazole (Test), day 6, healthy subjects"}, "[10]": {"conditions": "360 mg sotorasib alone (Reference), day 1, single oral dose, healthy subjects"}, "[11]": {"conditions": "960 mg sotorasib + 600 mg rifampin on day 3 (Test), single-dose rifampin"}, "[12]": {"conditions": "960 mg sotorasib + 600 mg rifampin on day 18 (Test), multiple daily dosing of rifampin"}, "[13]": {"conditions": "960 mg sotorasib on day 1 (Reference), healthy subjects"}},
  "note": "Read-outs that look alike come from different tables or passages of the source.",
  "data": [
    {"smiles": "C=CC(=O)N1CCN(c2nc(=O)n(-c3c(C)ccnc3C(C)C)c3nc(-c4c(O)cccc4F)c(F)cc23)[C@@H](C)C1", "note": "(atropisomer, axis not shown; (M)) [Sotorasib, 6-fluoro-7-(2-fluoro-6-hydroxyphenyl)-(1M)-1-[4-methyl-2-(propan-2-yl)pyridin-3-yl]-4-[(2S)-2-methyl-4-(prop-2-enoyl)piperazin-1-yl]pyrido[2,3-d]pyrimidin-2(1H)-one]", "values": [
      {"measurement": "Cmax", "setting": "[1]", "result": 6130, "unit": "ng/mL"},
      {"measurement": "Tmax", "setting": "[1]", "result": 0.51, "unit": "h"},
      {"measurement": "AUC(0-inf)", "setting": "[1]; [9]", "result": 31000, "unit": "ng·h/mL"},
      {"measurement": "AUC(0-inf)", "setting": "[1]; [10]", "result": 24600, "unit": "ng·h/mL"},
      {"measurement": "AUC(0-t)", "setting": "[1]; [9]", "result": 30700, "unit": "ng·h/mL"},
      {"measurement": "AUC(0-t)", "setting": "[1]; [10]", "result": 22700, "unit": "ng·h/mL"},
      {"measurement": "Geometric mean exposures, based on AUC and Cmax", "setting": "[2]; following coadministration with rifampin on days 3 and 18", "result": "lower following coadministration with rifampin on days 3 and 18"},
      {"measurement": "Cmax", "setting": "[2]; [11]", "result": 5340, "unit": "ng/mL"},
      {"measurement": "AUC(0-inf)", "setting": "[2]; [11]", "result": 19600, "unit": "ng·h/mL"},
      {"measurement": "AUC(0-t)", "setting": "[2]; [11]", "result": 19400, "unit": "ng·h/mL"},
      {"measurement": "Cmax", "setting": "[2]; [12]", "result": 4110, "unit": "ng/mL"},
      {"measurement": "AUC(0-inf)", "setting": "[2]; [12]", "result": 12400, "unit": "ng·h/mL"},
      {"measurement": "AUC(0-t)", "setting": "[2]; [12]", "result": 12300, "unit": "ng·h/mL"},
      {"measurement": "AUC(0-inf)", "setting": "[2]; [13]", "result": 25600, "unit": "ng·h/mL"},
      {"measurement": "AUC(0-t)", "setting": "[2]; [13]", "result": 25400, "unit": "ng·h/mL"},
      {"measurement": "half-life", "setting": "[3]; human, in vivo, po, 960 mg, read-out: half-life (t1/2), arithmetic mean", "result": "6.42 to 8.18", "unit": "h"},
      {"measurement": "Tmax", "setting": "[3]; human, in vivo, po, 960 mg, read-out: median tmax", "result": "1 to 1.47", "unit": "h"},
      {"measurement": "PK and safety profile", "setting": "[3]; moderate or severe hepatic impairment vs healthy subjects", "result": "clinically sufficiently similar to the PK and safety profile of healthy subjects"},
      {"measurement": "half-life (t1/2), trend across hepatic function groups", "setting": "[3]; normal, moderate or severe hepatic impairment, 960 mg sotorasib", "result": "no apparent trend related to hepatic impairment"},
      {"measurement": "findings in clinical laboratory evaluations, physical examinations, ECGs, and vital signs", "setting": "[4]; 960 mg sotorasib single dose", "result": "no clinically meaningful findings"},
      {"measurement": "serious adverse events or treatment-emergent adverse events leading to discontinuation", "setting": "[4]; 960 mg sotorasib single dose", "result": "no serious adverse events or treatment-emergent adverse events leading to discontinuation"},
      {"measurement": "adverse event severity", "setting": "[4]; all adverse events, 960 mg sotorasib", "result": "mild in severity"},
      {"measurement": "resolution of adverse events", "setting": "[4]; by end of study", "result": "All the adverse events resolved by the end of study"},
      {"measurement": "treatment-emergent adverse events considered related to sotorasib", "setting": "[4]; number of events, 20 subjects, Investigator assessment", "result": 5},
      {"measurement": "treatment-emergent adverse events", "setting": "[4]; number of events, 20 subjects, single dose 960 mg sotorasib", "result": 9},
      {"measurement": "safety and tolerability", "setting": "[4]; single doses, normal hepatic function, moderate or severe hepatic impairment", "result": "safe and well-tolerated"},
      {"measurement": "inhibition of KRAS^G12C", "setting": "KRAS^G12C", "result": "specifically and irreversibly inhibits"},
      {"measurement": "inhibition of phosphorylation of ERK", "setting": "[5]", "result": "inhibited nearly all detectable phosphorylation"},
      {"measurement": "tumor regression", "setting": "KRAS p.G12C tumors", "result": "durable complete tumor regression"},
      {"measurement": "growth and regression of cells and tumors", "setting": "[6]", "result": "inhibition of growth and regression of cells and tumors harboring KRAS G12C mutations"},
      {"measurement": "tumor response", "setting": "[7]; NSCLC, colorectal, pancreatic, appendiceal, endometrial, unknown primary, ampullary, gastric, small bowel, sinonasal, bile duct cancer, or melanoma", "result": "stable disease (SD) or partial response (PR)"},
      {"measurement": "disease control rate (95% CI)", "setting": "[7]; colorectal cancer, 42 patients", "result": 73.8, "unit": "%"},
      {"measurement": "disease control rate (95% CI)", "setting": "[7]; non-small cell lung cancer, 59 patients", "result": 88.1, "unit": "%"},
      {"measurement": "disease control rate (95% CI)", "setting": "[7]; other tumor types, 28 patients", "result": 75.0, "unit": "%"},
      {"measurement": "metabolizing enzyme", "setting": "CYP3A", "result": "mainly metabolized by the hepatic enzymes CYP3A"},
      {"measurement": "route of elimination", "setting": "[8]", "result": "mainly eliminated via the fecal route"}
    ]}
  ]
}
